Reference: patent US20050107386A1, “Methods of treating diseases and disorders by targeting multiple kinases” (priority 2003, published 2005)

What was measured:
Assay type in all cases: biochemical
Settings in all cases: 3 μM; percent of control kinase activity
Aurora-A(h) = molecular target: T1, Aurora-A(h) (Homo sapiens, UniProt O14965); experiment: Aurora-A(h) kinase assay
T1 sequence (O14965 1-403): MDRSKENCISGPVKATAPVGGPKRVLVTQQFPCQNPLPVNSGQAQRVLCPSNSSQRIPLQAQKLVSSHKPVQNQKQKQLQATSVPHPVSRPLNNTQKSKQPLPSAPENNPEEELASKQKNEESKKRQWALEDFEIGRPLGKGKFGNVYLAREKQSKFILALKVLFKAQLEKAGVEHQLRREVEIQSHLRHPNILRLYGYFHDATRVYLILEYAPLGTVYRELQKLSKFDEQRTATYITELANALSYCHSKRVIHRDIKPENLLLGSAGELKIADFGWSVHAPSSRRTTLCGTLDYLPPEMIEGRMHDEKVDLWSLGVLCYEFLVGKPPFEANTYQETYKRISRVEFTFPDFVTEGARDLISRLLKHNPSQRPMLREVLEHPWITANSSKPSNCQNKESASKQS
Description: (§1) Six compounds (presumptive single agents) were tested against a panel of 50 kinases. The results are presented in Table 2; numbers for each kinase indicate the percent of control kinase activity in the presence of a 3μM concentration of the indicated agent.
(§2) Agents that target two or more different kinases are useful in the methods of the invention as described elsewhere herein. Such compounds may be identified, and their effect on certain kinases may be identified, using the assays briefly described below in Examples 4-83. Each of these assays was carried out as described in Davies et al., Biochem. J., 351:95-105 (2000). All assays were carried out at 10 μM ATP unless otherwise noted.

CDK7/cyclinH/MAT1 = CDK7/cyclinH/MAT1 (Homo sapiens, UniProt P50613); experiment: CDK7/cyclinH/MAT1 kinase assay
Description: as §1, §2
In a final reaction volume of 25 μl, CDK7/cyclinH/MAT1 (h) (5-10 mU) is incubated with 8 mM MOPS pH 7.0, 0.2 mM EDTA, 500 μM peptide, 10 mM MgAcetate and [γ-^33P-ATP] [specific activity approx. 500 cpm/pmol, concentration as required). The reaction is initiated by the addition of Mg^2+ [γ-33 P-ATP]. After incubation for 40 minutes at room temperature, the reaction is stopped by the addition of 5 μl of a 3% phosphoric acid solution. 10 μl of the reaction is then spotted onto a P30 filtermat and washed three times for 5 minutes in 75 mM phosphoric acid and once in methanol prior to drying and scintillation counting.

PKA(h) = PKA(h) (Homo sapiens, UniProt P17612); experiment: PKA(h) kinase assay
Description: as §1, §2
In a final reaction volume of 25 μl, PKA(h) (5-10 mU) is incubated with 8 mM MOPS pH 7.0, 0.2 mM EDTA, 30 μM LRRASLG (Kemptide; SEQ ID NO:10), 10 mM MgAcetate and [γ-^33P-ATP] (specific activity approx. 500 cpm/pmol, concentration as required). The reaction is initiated by the addition of Mg^2+ [γ-^33P-ATP]. After incubation for 40 minutes at room temperature, the reaction is stopped by the addition of 5 [Il of a 3% phosphoric acid solution. 10 μl of the reaction is then spotted onto a P30 filtermat and washed three times for 5 minutes in 50 mM phosphoric acid and once in methanol prior to drying and scintillation counting.

PKD2(h) = molecular target: T2, PKD2(h) (Homo sapiens, UniProt Q9BZL6); experiment: PKD2(h) kinase assay
T2 sequence (Q9BZL6 1-878): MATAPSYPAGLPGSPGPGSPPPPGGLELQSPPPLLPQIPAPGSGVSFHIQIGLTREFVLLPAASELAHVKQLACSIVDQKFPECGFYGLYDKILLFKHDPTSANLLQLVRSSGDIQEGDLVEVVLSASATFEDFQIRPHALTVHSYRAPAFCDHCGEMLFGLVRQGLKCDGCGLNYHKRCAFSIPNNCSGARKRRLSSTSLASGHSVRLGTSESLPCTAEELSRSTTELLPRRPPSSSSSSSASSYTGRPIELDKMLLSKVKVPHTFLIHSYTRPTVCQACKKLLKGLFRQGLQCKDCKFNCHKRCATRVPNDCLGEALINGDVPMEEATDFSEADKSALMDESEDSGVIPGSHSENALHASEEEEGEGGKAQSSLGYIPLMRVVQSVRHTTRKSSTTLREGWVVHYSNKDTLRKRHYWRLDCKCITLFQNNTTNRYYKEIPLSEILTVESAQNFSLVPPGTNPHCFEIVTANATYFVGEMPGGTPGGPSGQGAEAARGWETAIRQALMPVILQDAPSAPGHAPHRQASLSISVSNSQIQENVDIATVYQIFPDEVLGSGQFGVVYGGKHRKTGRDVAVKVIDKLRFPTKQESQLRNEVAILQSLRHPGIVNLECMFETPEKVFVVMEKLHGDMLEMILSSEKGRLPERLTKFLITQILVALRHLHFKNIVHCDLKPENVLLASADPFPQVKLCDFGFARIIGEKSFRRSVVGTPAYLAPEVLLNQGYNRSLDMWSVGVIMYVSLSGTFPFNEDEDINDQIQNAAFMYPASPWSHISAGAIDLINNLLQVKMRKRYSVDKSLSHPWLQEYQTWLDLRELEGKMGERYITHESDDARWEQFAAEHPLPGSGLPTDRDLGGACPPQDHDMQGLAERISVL
Description: as §1, §2

IR(h) = IR(h) (Homo sapiens, UniProt P06213); experiment: IR(h) kinase assay
Description: as §1, §2
In a final reaction volume of 25 μl, IR (h) (5-10 mU) is incubated with 50 mM Tris pH 7.5, 0.1 mM EGTA, 0.1 mM NaVanadate, 0.1% β-mercaptoethanol, 250 μM […] (SEQ ID NO: 15), 10 mM MnCl2, 10 mM MgAcetate and [γ-^33P-ATP] (Specific activity approx. 500 cpm/pmol, concentration as required). The reaction is initiated by the addition of Mg^2+ [γ-^33P-ATP]. After incubation for 40 minutes at room temperature, the reaction is stopped by the addition of 5 μl of a 3% phosphoric acid solution. 10 μl of the reaction is then spotted onto a P30 filtermat and washed three times for 5 minutes in 75 mM phosphoric acid and once in methanol prior to drying and scintillation counting.

Sequence of CDK7/cyclinH/MAT1 (P50613 whole entry): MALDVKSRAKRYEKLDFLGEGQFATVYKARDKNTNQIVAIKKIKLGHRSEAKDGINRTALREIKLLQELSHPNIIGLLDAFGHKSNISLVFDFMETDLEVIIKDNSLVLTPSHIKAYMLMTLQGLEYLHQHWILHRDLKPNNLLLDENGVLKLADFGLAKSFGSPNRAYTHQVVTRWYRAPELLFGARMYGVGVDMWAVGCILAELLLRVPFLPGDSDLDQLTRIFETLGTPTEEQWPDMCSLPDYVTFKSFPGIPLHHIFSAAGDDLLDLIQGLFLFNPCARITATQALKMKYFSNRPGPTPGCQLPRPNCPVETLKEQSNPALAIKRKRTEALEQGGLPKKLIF
Sequence of CDK7/cyclinH/MAT1 (P51946 whole entry partner): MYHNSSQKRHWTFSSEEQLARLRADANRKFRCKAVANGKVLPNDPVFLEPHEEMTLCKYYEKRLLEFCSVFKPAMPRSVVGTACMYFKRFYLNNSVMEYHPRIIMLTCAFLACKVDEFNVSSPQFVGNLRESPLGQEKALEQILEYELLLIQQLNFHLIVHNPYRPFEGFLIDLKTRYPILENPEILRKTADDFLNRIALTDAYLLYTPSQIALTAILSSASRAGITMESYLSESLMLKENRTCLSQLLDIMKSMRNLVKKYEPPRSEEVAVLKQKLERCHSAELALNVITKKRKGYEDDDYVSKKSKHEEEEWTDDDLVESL
Sequence of CDK7/cyclinH/MAT1 (P51948 whole entry partner): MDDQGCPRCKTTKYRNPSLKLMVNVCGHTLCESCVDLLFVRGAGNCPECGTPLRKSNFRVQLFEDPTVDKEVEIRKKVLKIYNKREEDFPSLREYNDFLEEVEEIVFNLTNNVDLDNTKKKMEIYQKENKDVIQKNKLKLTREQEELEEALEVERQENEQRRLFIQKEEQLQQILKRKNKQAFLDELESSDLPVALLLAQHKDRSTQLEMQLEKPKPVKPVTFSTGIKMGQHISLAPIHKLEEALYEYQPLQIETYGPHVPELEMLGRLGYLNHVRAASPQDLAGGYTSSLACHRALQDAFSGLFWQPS
Sequence of IR(h) (P06213 28-1382): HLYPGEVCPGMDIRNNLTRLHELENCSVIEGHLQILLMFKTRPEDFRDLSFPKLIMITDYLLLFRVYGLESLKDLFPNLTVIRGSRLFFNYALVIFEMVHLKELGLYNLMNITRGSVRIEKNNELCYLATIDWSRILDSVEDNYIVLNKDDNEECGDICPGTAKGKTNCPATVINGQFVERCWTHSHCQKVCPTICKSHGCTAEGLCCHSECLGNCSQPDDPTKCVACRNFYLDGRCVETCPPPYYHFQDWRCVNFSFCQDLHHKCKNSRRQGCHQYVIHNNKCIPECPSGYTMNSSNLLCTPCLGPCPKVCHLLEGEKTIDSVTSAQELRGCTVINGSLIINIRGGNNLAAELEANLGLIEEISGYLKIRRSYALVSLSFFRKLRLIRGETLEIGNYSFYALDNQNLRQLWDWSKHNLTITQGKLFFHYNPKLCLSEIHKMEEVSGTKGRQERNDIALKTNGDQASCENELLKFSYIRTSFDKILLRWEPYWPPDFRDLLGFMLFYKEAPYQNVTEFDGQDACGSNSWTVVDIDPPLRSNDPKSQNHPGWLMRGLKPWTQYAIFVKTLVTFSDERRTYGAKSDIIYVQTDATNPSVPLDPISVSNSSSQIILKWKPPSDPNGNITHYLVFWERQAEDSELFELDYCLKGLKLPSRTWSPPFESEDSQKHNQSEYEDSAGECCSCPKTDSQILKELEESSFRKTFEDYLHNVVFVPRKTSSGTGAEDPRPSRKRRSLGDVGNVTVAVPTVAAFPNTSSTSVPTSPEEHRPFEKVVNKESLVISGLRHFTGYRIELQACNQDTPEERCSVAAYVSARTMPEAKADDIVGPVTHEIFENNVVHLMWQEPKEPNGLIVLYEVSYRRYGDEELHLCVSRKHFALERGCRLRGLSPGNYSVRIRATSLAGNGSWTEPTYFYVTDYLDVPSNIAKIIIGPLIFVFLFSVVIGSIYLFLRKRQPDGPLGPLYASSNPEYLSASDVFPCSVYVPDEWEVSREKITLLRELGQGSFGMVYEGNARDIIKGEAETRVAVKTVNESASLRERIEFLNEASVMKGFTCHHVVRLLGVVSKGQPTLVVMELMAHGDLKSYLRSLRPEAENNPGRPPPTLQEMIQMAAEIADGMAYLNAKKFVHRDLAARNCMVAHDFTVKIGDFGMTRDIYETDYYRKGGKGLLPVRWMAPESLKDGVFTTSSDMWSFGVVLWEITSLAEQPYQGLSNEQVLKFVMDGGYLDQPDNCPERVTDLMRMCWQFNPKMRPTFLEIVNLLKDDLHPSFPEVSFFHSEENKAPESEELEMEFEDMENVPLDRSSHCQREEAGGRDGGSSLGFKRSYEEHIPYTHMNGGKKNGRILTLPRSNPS

| Structure (SMILES) | Inhibitory activity (% of control), Aurora-A(h) (Aurora-A(h)) | Inhibitory activity (% of control), CDK7/cyclinH/MAT1 (CDK7/cyclinH/MAT1) | Inhibitory activity (% of control), PKA(h) (PKA(h)) | Inhibitory activity (% of control), PKD2(h) (PKD2(h)) | Inhibitory activity (% of control), IR(h) (IR(h)) |
| --- | --- | --- | --- | --- | --- |
| COc1ccc2cc(-c3n[nH]c4ccc(-c5n[nH]c(CN6CCOCC6)n5)cc34)ccc2c1 [CC001, 3-(6-Methoxynaphthalen-2-yl)-5-(5-Morpholin-4-Ylmethyl-1H-[1,2,4]Triazol-3-yl)-1H-Indazole] | 7 % of control | 13 % of control | 60 % of control | 14 % of control | 74 % of control |
| CC(C)(C)Cc1nc(-c2ccc3[nH]nc(-c4ccc5cc(OCc6ccccn6)ccc5c4)c3c2)n[nH]1 [CC004, 5-[5-(2,2-Dimethyl-propyl)-1H-[1,2,4]triazol-3-yl]-3-[6-(pyridine-2-ylmethoxy)-naphthalen-2-yl]-1H-indazole] | 7 % of control | 19 % of control | 91 % of control | 26 % of control | 89 % of control |
| CCN1CCC[C@H]1COc1ccc2cc(-c3n[nH]c4ccc(-c5nc(CC(C)(C)C)n[nH]5)cc34)ccc2c1 [CC005, 2-[((2s)-1-ethylpyrrolidin-2-yl)methoxy]-6-{5-[3-(2,2-Dimethylpropyl)(1H-1,2,4,-triazol-5-yl)](1H-indazol-3-yl)}naphthalene] | 0 % of control | 7 % of control | 50 % of control | 0 % of control | 31 % of control |
